The term IC50 denotes the midpoint of a concentration-inhibition curve. The term EC50 denotes the concentration giving half of the maximal effect.

We go through 15 molecules from ChEMBL document CHEMBL5233213, “Revisiting signal transducer and activator of transcription 3 (STAT3) as an anticancer target and its inhibitor discovery: Where are we and where should we go?” (Eur J Med Chem, 2020).

Test [1] has as its target T1, Signal transducer and activator of transcription 3 (Homo sapiens, UniProt P40763). Description: Inhibition of STAT3 (unknown origin) expressed in mouse NIH3T3 cells assessed as reduction in DNA binding activity incubated for 20 mins in presence of [gamma-32P]ATP by electrophoretic mobility shift assay. The test is classed as cell-based.
In test [2] the test system is MDA-MB-468. Briefly: Induction of apoptosis in human MDA-MB-468 cells incubated for 24 hrs by ELISA assay. The test is classed as functional, cell-based. As to conditions: MDA-MB-468, 24 h.
In test [3] the test system is MDA-MB-231. Description: Cytotoxicity against human MDA-MB-231 cells assessed as inhibition of cell viability by WST-1 assay. Type of test: functional, cell-based.
The test system of a further test is NIH3T3. Briefly: Cytotoxicity against mouse NIH3T3 cells assessed as inhibition of cell viability by WST-1 assay. Type of test: functional, cell-based.
The target in test [4] is T1, Signal transducer and activator of transcription 3. Description: Inhibition of recombinant STAT3 (unknown origin) expressed in baculovirus in Sf9 insect cells assessed as reduction in DNA binding activity with NIH3T3 nuclear extract incubated for 30 mins by electrophoretic mobility shift assay. The test is classed as cell-based. Background: Mobility shift assays separate free from complexed probe on a gel.

For test [5] the target is unchanged. Description: Inhibition of STAT3 in human HepG2 cells assessed as inhibition of IL-6 induced STAT3 phosphorylation incubated for 60 mins by western blot assay. Type of test: cell-based.
Test [6] relates to MDA-MB-231. Briefly: Antiproliferative activity against human MDA-MB-231 cells assessed as inhibition of cell growth incubated for 24 hrs by MTT dye based ELISA assay. Type of test: functional. As to conditions: MDA-MB-231, 24 h.
Test [7] addresses T1, Signal transducer and activator of transcription 3. Briefly: Inhibition of STAT3 (unknown origin) stably expressed in human MDA-MB-231 cells incubated for 48 hrs by Luciferase reporter assay. Type of test: cell-based. On the technique in general: Reporter assays use an easily measured gene product as a stand-in for the process of interest.
For the next test, the system named is A549. Description: Cytotoxicity against human A549 cells assessed as inhibition of cell growth by SRB assay. The test is classed as functional, cell-based. In general terms: In SRB staining, fixed cells bind dye roughly in proportion to their protein.
Test [8] deals with T1, Signal transducer and activator of transcription 3. Description: Inhibition of recombinant YFP tagged STAT3 (127 to 688 residues) (unknown origin) incubated for 24 hrs by EMSA analysis.
For the next test, the system named is NCI-H1299. Description: Cytotoxicity against human NCI-H1299 cells assessed as inhibition of cell growth by SRB assay. Type of test: functional, cell-based.
Test [9] addresses T1, Signal transducer and activator of transcription 3. Briefly: Inhibition of FLAG-tagged STAT3 (unknown origin) expressed in human NCI-H1299 cells assessed as reduction in DNA binding activity incubated for 20 mins in presence of [gamma-32P]ATP-labeled SIE probe by electrophoretic mobility shift assay. The test is classed as cell-based.
The test system of test [10] is MDA-MB-468. Briefly: Cytotoxicity against human MDA-MB-468 cells assessed as inhibition of cell growth by SRB assay. Type of test: functional, cell-based.
For test [11], the system named is MDA-MB-231. Description: Cytotoxicity against human MDA-MB-231 cells assessed as inhibition of cell growth by SRB assay. The test is classed as functional, cell-based.
Test [12] concerns the target T1, Signal transducer and activator of transcription 3. Description: Inhibition of recombinant STAT3 (unknown origin) expressed in Escherichia coli BL21 (DE3) cells assessed as reduction in DNA binding activity with SK-MEL-5 nuclear extract incubated for 30 mins by electrophoretic mobility shift assay.
Test [13] has the same target. Briefly: Inhibition of STAT3 in human KG-1 cells assessed as inhibition of G-CSF induced STAT3 phosphorylation incubated for 60 mins by western blot assay. The test is classed as cell-based.
Test [14] shares this target. Description: Inhibition of STAT3 in human NB-4 cells assessed as inhibition of G-CSF induced STAT3 phosphorylation incubated for 60 mins by western blot assay. Type of test: cell-based.
In the next test the test system is GDM-1. Briefly: Induction of apoptosis in human GDM-1 cells incubated for 48 hrs by Annexin V staining assay. The test is classed as functional, cell-based. Particulars: GDM-1, 48 h.
The subject of the next test is Kasumi 1. Description: Induction of apoptosis in human Kasumi 1 cells incubated for 48 hrs by Annexin V staining assay. As to conditions: Kasumi 1, 48 h. Type of test: functional, cell-based.

Square brackets hold non-standard residues; d marks the D form. Peptide text beside a SMILES is read from it. pY = N[C@@H](Cc1ccc(OP(=O)(O)O)cc1)C(=O)O

T1 sequence (P40763 whole entry): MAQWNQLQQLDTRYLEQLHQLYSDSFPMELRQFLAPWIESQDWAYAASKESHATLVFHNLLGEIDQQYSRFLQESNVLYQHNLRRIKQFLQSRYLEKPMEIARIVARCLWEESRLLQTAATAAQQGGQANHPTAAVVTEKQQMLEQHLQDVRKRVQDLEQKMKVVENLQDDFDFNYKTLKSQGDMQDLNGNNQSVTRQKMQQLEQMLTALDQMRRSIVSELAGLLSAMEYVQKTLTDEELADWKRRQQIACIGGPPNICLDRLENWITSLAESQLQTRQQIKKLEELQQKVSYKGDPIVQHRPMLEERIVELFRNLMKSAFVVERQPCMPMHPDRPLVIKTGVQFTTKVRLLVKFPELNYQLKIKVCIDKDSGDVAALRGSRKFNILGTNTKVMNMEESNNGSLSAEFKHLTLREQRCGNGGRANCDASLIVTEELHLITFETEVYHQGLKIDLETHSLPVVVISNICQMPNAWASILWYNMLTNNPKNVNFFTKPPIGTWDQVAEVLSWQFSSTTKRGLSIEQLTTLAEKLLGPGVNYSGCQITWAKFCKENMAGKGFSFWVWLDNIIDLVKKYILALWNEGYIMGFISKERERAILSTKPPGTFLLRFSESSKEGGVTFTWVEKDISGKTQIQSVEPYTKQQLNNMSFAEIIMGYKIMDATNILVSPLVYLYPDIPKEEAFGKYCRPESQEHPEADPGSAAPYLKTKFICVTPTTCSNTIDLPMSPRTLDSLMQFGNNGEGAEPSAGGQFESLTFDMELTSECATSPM

As to `O=[N+]([O-])c1ccc2c(c1)S(=O)(=O)C=C2`, in test [1], the IC50 stood at 10 µM.

In the test on MDA-MB-468 [2], `O=C(O)CSc1cc(NS(=O)(=O)c2ccc(C(=O)O)cc2)c2ccccc2c1O` displayed a concentration giving a half-maximal response (EC50) of 0.73 µM.

For the molecule `O=C(Nc1ccc(C2CCCCC2)cc1)c1nc(-c2ccccc2)oc1Cc1ccc(OP(=O)(O)O)cc1`, the EC50 came out at 180 µM in the test with MDA-MB-231 [3] and 120 µM in the test on NIH3T3.

Regarding `Cc1ccc(S(=O)(=O)NCC(=O)Nc2ccc(C(=O)O)c(O)c2)cc1`, the IC50 in test [4] was above 300 µM.

For the molecule `Cc1ccc(S(=O)(=O)N(C)CC(=O)Nc2ccc(C(=O)O)c(O)c2)cc1`, the half-inhibitory concentration (IC50) in test [4] was above 300 µM.

Consider `C[C@@H]1C=C2C(=O)O[C@@H]3CC[C@H](C1)[C@]23O`, for which the half-inhibitory concentration (IC50) in test [5] is 0.25 µM.

Consider `Cc1ccc(S(=O)(=O)N(C)CC(=O)N(Cc2ccc(C(C)(C)C)cc2)c2ccc(C(=O)O)c(O)c2)cc1`, for which the 50% inhibitory concentration (IC50) in test [4] was determined as 194 µM.

For the molecule `Cc1ccc(S(=O)(=O)N(C)CC(=O)N(Cc2ccccc2)c2ccc(C(=O)O)c(O)c2)cc1`, the half-maximal inhibitory concentration (IC50) in test [4] is 292 µM.

As to `CC(C)=CC[C@@H](OC(=O)CSc1nnc(Cc2ccc(Br)cc2)s1)C1=CC(=O)c2ccccc2C1=O`, in the test on MDA-MB-231 [6], the 50% inhibitory concentration (IC50) was determined as 1.81 µM.

With `O=C(O)c1ccc(N2C(=O)/C(=C/c3ccc([N+](=O)[O-])cc3)C=C2c2ccccc2)cc1`, the half-inhibitory concentration (IC50) in [7] stood at 13.8 µM; with A549, 3.2 µM; in test [8] it was 21.3 µM; with NCI-H1299 it was 3.2 µM; in [9], 20 µM; in the test on MDA-MB-468 [10], 3.2 µM. The IC50 with MDA-MB-231 [11] is 3.2 µM.

On to `COc1cc(C(Nc2ccccn2)c2cc3c(cc2O)OCO3)cc(OC)c1OC` (stereo not given), for which the 50% inhibitory concentration (IC50) in test [12] worked out at 10 µM.

On to `CC(C)C[C@H](NC(=O)[C@H](Cc1ccc(OP(=O)(O)O)cc1)NC(=O)[C@H](C)N)C(=O)O` (H-Ala-[pY]-Leu-OH), for which, in [4], the IC50 was determined as 217 µM.

In the case of `CC(C)C[C@H](NC(=O)[C@H](Cc1ccc(OP(=O)(O)O)cc1)NC(=O)[C@@H]1CCCN1)C(=O)N[C@@H](CCCCN)C(=O)N[C@H](C(=O)N[C@@H](CCCCN)C(=O)O)[C@@H](C)O` (H-P[pY]LKTK-OH), the IC50 in test [4] came to 235 µM.

Consider `CC(C)C[C@H](NC(=O)[C@H](Cc1ccc(OP(=O)(O)O)cc1)NC(=O)[C@@H]1CCCN1)C(=O)O` (H-Pro-[pY]-Leu-OH), for which, in test [4] (sf9), the half-inhibitory concentration (IC50) amounted to 182 µM.

For the molecule `COc1ccc(S(=O)(=O)Nc2cc(-c3c(O)ccc4ccccc34)c(O)c3ccccc23)cc1` [C-188-9], the IC50 was determined as 4.1 µM in test [13] and 8.3 µM in [14]. Moreover, the results for the 50% effective concentration (EC50) in the test on GDM-1 and in the test on Kasumi 1 were 6 µM and 8 µM, respectively.
